This passage reports IC50 results from ChEMBL document CHEMBL5108047 (J Med Chem, 2022).

Assay [1] concerns the target T1, DNA polymerase alpha catalytic subunit (Homo sapiens, UniProt P09884).
T1 sequence (P09884 whole entry): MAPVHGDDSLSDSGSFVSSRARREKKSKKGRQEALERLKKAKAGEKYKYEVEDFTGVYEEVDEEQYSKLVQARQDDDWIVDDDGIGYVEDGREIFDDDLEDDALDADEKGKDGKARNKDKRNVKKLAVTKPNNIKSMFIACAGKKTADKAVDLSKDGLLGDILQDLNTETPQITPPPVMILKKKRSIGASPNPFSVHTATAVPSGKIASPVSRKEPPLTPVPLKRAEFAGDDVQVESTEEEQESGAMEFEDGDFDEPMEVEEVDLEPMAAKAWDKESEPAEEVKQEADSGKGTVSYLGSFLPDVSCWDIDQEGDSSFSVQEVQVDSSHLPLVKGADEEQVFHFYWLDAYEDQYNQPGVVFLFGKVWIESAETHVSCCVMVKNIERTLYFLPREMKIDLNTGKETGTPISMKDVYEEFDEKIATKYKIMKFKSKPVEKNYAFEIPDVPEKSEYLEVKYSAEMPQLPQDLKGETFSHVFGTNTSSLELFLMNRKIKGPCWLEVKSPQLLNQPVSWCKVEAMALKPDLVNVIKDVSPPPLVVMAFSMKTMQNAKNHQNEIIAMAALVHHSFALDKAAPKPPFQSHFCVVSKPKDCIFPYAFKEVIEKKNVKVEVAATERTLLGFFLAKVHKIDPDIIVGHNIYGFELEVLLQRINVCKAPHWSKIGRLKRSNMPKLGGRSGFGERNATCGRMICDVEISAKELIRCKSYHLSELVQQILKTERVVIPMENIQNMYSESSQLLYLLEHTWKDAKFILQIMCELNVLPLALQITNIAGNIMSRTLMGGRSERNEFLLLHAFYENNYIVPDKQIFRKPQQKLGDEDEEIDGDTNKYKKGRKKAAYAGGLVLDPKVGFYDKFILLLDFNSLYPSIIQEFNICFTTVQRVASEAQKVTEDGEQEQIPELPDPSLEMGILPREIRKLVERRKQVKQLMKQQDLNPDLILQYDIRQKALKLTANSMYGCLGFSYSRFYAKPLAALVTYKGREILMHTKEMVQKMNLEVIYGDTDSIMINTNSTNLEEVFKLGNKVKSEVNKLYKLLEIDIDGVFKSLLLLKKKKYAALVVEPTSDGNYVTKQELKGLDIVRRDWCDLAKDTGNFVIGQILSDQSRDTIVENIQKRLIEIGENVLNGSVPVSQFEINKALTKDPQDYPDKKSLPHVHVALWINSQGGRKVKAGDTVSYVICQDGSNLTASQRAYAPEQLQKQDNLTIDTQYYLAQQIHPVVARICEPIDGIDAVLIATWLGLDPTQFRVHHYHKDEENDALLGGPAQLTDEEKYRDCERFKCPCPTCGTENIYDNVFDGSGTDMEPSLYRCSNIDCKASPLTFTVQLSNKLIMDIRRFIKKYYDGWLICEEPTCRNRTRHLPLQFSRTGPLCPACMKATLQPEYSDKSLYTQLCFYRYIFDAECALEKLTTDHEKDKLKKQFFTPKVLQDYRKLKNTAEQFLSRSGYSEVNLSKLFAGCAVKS
Put plainly: Inhibition of human DNA polymerase alpha.

Another assay concerns the target DNA polymerase theta (Homo sapiens, UniProt O75417). Put plainly: Inhibition of human DNA polymerase theta pol domain (1819 to 2590 residues) expressed in Escherichia coli BL21 (DE3) cells preincubated for 15 mins followed by DNA and dNTP addition and measured after 120 mins by Picogreen dye fluorescence intensity analysis.

pIC50: −log10 of the molar value.

Chain of DNA polymerase theta (O75417 whole entry, the tested form may be a part): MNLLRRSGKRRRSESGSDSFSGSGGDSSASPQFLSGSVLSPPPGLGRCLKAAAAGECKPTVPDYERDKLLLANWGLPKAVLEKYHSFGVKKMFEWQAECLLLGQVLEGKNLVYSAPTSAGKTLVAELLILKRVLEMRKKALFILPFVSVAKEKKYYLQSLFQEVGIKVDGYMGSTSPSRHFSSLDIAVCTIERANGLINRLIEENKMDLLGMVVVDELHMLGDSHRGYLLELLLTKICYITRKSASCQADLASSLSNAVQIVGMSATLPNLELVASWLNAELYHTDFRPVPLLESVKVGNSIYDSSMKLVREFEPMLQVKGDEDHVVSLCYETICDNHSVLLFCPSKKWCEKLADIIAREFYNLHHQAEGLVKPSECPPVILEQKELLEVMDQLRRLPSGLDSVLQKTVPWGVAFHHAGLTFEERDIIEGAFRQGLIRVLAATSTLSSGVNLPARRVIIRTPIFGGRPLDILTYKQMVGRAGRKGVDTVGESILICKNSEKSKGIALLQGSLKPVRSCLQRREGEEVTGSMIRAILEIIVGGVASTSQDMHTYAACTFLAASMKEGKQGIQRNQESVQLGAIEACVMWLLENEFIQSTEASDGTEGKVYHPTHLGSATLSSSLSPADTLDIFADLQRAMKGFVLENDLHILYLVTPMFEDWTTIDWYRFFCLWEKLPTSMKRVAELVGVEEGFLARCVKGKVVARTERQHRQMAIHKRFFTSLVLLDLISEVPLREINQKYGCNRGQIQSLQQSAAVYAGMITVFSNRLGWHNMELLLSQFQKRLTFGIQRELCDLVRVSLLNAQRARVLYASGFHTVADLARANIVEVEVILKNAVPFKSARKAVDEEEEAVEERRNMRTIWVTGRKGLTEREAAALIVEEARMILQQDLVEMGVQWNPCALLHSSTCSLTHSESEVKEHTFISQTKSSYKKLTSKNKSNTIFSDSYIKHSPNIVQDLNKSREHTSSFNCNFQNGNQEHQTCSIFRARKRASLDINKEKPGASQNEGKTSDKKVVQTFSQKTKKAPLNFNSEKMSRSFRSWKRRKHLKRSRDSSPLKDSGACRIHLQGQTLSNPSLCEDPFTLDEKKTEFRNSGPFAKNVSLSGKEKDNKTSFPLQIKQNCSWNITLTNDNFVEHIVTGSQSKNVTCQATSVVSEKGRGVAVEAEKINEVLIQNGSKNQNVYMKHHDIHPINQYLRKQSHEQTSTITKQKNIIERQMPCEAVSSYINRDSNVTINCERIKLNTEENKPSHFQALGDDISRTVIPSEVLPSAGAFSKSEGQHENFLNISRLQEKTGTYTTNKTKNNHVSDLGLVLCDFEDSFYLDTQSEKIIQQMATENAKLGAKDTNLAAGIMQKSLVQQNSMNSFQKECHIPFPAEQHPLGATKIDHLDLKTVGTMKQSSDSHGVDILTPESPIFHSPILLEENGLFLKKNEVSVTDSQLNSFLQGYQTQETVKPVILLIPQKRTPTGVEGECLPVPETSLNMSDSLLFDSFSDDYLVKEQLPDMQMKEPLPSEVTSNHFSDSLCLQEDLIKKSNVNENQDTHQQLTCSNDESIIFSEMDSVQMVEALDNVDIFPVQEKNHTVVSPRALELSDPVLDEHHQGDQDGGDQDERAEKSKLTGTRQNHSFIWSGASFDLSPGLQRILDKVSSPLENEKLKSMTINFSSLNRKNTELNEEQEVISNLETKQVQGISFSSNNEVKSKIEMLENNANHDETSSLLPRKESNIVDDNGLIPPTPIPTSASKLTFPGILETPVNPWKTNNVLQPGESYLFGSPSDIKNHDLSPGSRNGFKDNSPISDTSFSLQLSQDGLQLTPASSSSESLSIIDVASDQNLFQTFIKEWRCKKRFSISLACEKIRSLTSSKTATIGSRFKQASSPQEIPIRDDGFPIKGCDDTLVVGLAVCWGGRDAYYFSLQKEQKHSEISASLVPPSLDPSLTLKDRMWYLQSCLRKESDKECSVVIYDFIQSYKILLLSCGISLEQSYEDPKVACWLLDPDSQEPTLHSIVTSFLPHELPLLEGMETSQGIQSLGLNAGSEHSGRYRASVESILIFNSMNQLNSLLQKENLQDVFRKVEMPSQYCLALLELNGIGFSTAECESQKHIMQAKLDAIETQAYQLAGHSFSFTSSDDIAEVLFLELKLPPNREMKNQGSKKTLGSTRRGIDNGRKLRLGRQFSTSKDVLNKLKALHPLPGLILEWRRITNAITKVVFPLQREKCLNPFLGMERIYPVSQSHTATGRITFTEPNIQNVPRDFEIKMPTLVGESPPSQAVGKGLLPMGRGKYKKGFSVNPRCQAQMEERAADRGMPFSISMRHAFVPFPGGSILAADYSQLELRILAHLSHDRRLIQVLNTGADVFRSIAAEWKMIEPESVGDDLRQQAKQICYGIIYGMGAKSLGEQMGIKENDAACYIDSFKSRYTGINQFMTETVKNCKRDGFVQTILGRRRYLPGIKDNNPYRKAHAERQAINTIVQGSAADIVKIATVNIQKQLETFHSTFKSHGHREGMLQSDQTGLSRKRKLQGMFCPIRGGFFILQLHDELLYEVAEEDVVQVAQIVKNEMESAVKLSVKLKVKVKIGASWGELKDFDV

Consider `Nc1ccc(C#CCN(C(=O)Cc2ncc(C(F)(F)F)cc2C(F)(F)F)c2ccc(F)cc2)nn1`, for which the pIC50 in assay [1] was below 4.00; at DNA polymerase theta, 8.24.
